Reference: patent US4734428A, “Aminoethylimidazole and cytoprotective and gastric antisecretory composition containing the same” (Jouveinal S.A., priority 1984, dated 1988)
Read-outs that look alike come from different tables or passages of the source.

Columns and labels:
[1] = acute toxicity (LD50, mice); details: mouse, in vivo, 14 days
Procedure: The acute toxicity of the products was investigated in male SWISS/IOPS mice weighing approximately 22 g. The 50% lethal dose (LD50) was calculated by the method of L. J. REED and H. MUNCH (Am. J. Hyg. 1939-37-493) 14 days following the […] treatment of batches of 10 animals per dose and on the basis of 4 to 6 doses per product. The results of this investigation are given in table 3 for the products of examples 1 to 8 and in table 4 for the products of examples 9 to 12.

gastric mucosa = experiment: cytoprotection test, gastric ulceration caused by absolute ethanol; format: in vivo, Sprague Dawley rats; details: rat; for ED50 values relative to the two routes compared: oral versus parenteral (s.c.) route
Procedure: The cytoprotective activity was investigated in connection with the stressing of the gastric mucosa caused by ethanol.
The cytoprotection test was carried out in accordance with the procedure described by A. ROBERT et al (Gastroenterology 1979-77-433). Batches of six male Sprague Dawley rats, which had not received solid food for 24 hours before the test, received by the oral route 1 ml/rat of absolute ethanol, after receiving the product to be tested 30 minutes beforehand by the subcutaneous […] 1 hour beforehand by the oral route. One hour after ingesting the ethanol, the rats were killed by stretching and their stomachs were carefully removed, opened along the greater curvature, washed under running water and spread out. The ulcerations were then marked and measured under a binocular lamp. An index representing the sum of the lengths of the ulcers is then determined for each rat and the mean value of these indexes for each batch is calculated and compared with that of the control batch using the Student "t" test. The 50% effective dose (ED50) is then graphically determined when possible. In other cases, the percentage inhibition obtained with the aid of the maximum tested dose is given. The results are given in table 5 for the products of examples 1 to 8 and in table 6 for the products of examples 9 to 12.

thromboxane synthetase [2] = target: T1, thromboxane synthetase (Oryctolagus cuniculus, UniProt G1TAZ9); experiment: inhibition of TXB2 synthesis (thromboxane synthetase) in washed rabbit platelets; format: cell-based; details: for activity relative to 1-benzyl imidazole: reference 1-benzyl imidazole
T1 construct: carried out in vitro on washed rabbit platelets; endogenous in cells; host or cells: washed rabbit platelets
T1 sequence (G1TAZ9 1-530): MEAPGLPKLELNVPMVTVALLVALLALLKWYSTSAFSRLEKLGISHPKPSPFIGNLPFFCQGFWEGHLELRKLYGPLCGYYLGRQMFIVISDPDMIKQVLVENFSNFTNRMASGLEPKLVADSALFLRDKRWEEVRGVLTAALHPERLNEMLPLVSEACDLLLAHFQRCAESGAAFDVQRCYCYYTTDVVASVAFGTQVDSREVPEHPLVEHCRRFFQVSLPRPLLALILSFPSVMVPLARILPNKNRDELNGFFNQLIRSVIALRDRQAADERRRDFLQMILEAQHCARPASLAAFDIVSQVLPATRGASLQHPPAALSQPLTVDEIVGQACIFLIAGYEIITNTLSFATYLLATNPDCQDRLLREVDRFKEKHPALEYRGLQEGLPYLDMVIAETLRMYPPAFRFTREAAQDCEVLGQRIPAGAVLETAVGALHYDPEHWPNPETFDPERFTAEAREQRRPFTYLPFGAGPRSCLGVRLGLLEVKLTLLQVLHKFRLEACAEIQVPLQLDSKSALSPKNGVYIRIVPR
Procedure: (§1) The test performed was carried out in vitro on washed rabbit platelets. It was based on the publications of NEEDLEMAN (1977. Proc. Natl. Acad. Sci. 74, 1716) and SALMON (1982, Cardiovascular Pharmacol. of the Prostaglandins--Raven Press N.Y. pp. 7 to 22). It makes it possible both to determine the reduction of the synthesis of TXB2 and also the possible increase of the synthesis of PGE2. Thus, it is possible to determine the activity of the products on the PG:TX ratio.
(§2) The results given in the following tables are expressed in CEx%, i.e. in micromolar concentrations per liter permitting an inhibition by x% of the synthesis of TXB2. In the adjacent column, the symbol + means that the effect also causes an increase in the synthesis of PGE2.

synthesis of PGE2 = experiment: increase of PGE2 synthesis in washed rabbit platelets; format: cell-based; parameters: key: +: the effect also causes an increase in the synthesis of PGE2; details: in vitro
Procedure: as §1, §2

thromboxane synthetase [3] = details: human platelets; literature; cited from earlier work
[4] = oral route, read-out: LD50 % oral route
[5] = sc, s.c. route, 30 minutes before absolute ethanol, read-out: ED50% s.c. route
[6] = washed rabbit platelets, in vitro, 50% inhibition of TXB2 synthesis, read-out: Inh. TX B2 CE50%
[7] = ip, read-out: LD50 % i.p. route
[8] = oral route, 1 hour before absolute ethanol, read-out: ED50% oral route

Compound | LD50 at 336 h [1, 4] | ED50 (gastric mucosa; [5]) | IC50 (thromboxane synthetase [2]; [6]) | Incr. PGE2 (synthesis of PGE2) | LD50 at 336 h [1, 7] | also measured
CCC(Cn1ccnc1)(c1ccccc1)N(C)C (single isomer, unassigned) [EX. 12, 1-[(2-phenyl-2-ethyl)-2-N,N-dimethylaminoethyl]-imidazole] | 780 mg/kg | 5.3 mg/kg | 11.3 µM | + | – | –
c1ccc(Cn2ccnc2)cc1 [1-Benzyl-Imidazole, 1-benzyl imidazole, reference compound] | – | – | – | – | – | IC50 (thromboxane synthetase [2]): 13.4 µM; thromboxane synthetase inhibition in words (thromboxane synthetase [3]): thromboxane synthetase inhibitor
COc1ccc(CC(C)(Cn2ccnc2)N(C)C)cc1 (stereo not drawn) [EX. 9, 1-[(2-p-methoxybenzyl-2-methyl)-2-N,N-dimethylaminoethyl]imidazole dihemimaleate] | 758 mg/kg | – | 4.5 µM | + | 231 mg/kg | activity relative to 1-benzyl imidazole (thromboxane synthetase [2]; washed rabbit platelets): equal to clearly superior activity
CN(C)C(C)(COc1ccc(Cl)cc1)Cn1ccnc1 (stereo not drawn) [EX. 10] | 86 mg/kg | 10 mg/kg | 13.2 µM | + | 32 mg/kg | –
CN(C)C(C)(Cn1ccnc1)c1ccc(-c2ccccc2)cc1 (stereo not drawn) [EX. 11] | 183 mg/kg | – | 11.2 µM | + | – | ED40 (gastric mucosa; sc, s.c. route, 30 minutes before absolute ethanol): 10 mg/kg
CCC(Cn1ccnc1)(c1ccccc1)N(C)C (stereo not drawn) [Ex. 1A, 1-[(2-phenyl-2-ethyl)-2-N,N-dimethylaminoethyl]-imidazole] | 559 mg/kg | 11 mg/kg | 3.7 µM | + | 326 mg/kg | ED50 (gastric mucosa; [8]): 13 mg/kg; ED50 values relative to the two routes compared (gastric mucosa): roughly equivalent; activity relative to 1-benzyl imidazole (thromboxane synthetase [2]; washed rabbit platelets): equal to clearly superior activity
CCC(CN(C)C)(c1ccccc1)n1ccnc1 (stereo not drawn) [Ex. 1B, 1-[(1-phenyl-1-ethyl)-2-N,N-dimethylaminoethyl]-imidazole] | 285 mg/kg | 8.1 mg/kg | 17.4 µM | + | 145 mg/kg | ED50 (gastric mucosa; [8]): 7.1 mg/kg; ED50 values relative to the two routes compared (gastric mucosa): roughly equivalent
CCC(Cn1ccnc1C)(c1ccccc1)N(C)C (stereo not drawn) [Ex. 2A, 1-[(2-phenyl-2-ethyl)-2-N,N-dimethylaminoethyl]-2-methylimidazole] | 500 mg/kg | 12.6 mg/kg | – | – | 157 mg/kg | ED50 (gastric mucosa; [8]): 12 mg/kg; ED50 values relative to the two routes compared (gastric mucosa): roughly equivalent; IC10 (thromboxane synthetase [2]; washed rabbit platelets, in vitro, 10% inhibition of TXB2 synthesis, read-out: Inh. TX B2 CE10%): 50 µM
CCC(CN(C)C)(c1ccccc1)n1ccnc1C (stereo not drawn) [Ex. 2B, 1-[(1-phenyl-1-ethyl)-2-N,N-dimethylaminoethyl]-2-methylimidazole] | 393 mg/kg | 10 mg/kg | – | – | 137 mg/kg | ED50 (gastric mucosa; [8]): 12 mg/kg; ED50 values relative to the two routes compared (gastric mucosa): roughly equivalent; IC18 (thromboxane synthetase [2]; washed rabbit platelets, in vitro, 18% inhibition of TXB2 synthesis, read-out: Inh. TX B2 CE18%): 50 µM
CCC(Cn1cnc(-c2ccccc2)c1-c1ccccc1)(c1ccccc1)N(C)C (stereo not drawn) [Ex. 3A] | > 1150 mg/kg | – | – | – | – | –
CCC(CN(C)C)(c1ccccc1)n1cnc(-c2ccccc2)c1-c1ccccc1 (stereo not drawn) [Ex. 3B] | > 1150 mg/kg | – | – | – | – | ED50 (gastric mucosa; [8]): 26 mg/kg
CCc1nc(C)cn1C(CC)(CN(C)C)c1ccccc1 (stereo not drawn) [Ex. 4B] | 298 mg/kg | 4 mg/kg | – | – | 47 mg/kg | –
CCC(Cn1ccnc1-c1ccccc1)(c1ccccc1)N(C)C (stereo not drawn) [Ex. 5A] | – | – | 50 µM | – | – | –
CCC(CN(C)C)(c1ccccc1)n1ccnc1-c1ccccc1 (stereo not drawn) [Ex. 5B] | 840 mg/kg | – | – | – | – | IC20 (thromboxane synthetase [2]; washed rabbit platelets, in vitro, 20% inhibition of TXB2 synthesis, read-out: Inh. TX B2 CE20%): 50 µM
CN(C)C(C)(C)Cn1ccnc1 [Ex. 6A] | > 1180 mg/kg | – | – | – | – | IC41 (thromboxane synthetase [2]; washed rabbit platelets, in vitro, 41% inhibition of TXB2 synthesis, read-out: Inh. TX B2 CE41%): 50 µM
CN(C)CC(C)(C)n1ccnc1 [Ex. 6B] | > 1180 mg/kg | – | 50 µM | – | – | –
CCC(Cc1ccccc1)(Cn1ccnc1)N(C)C (stereo not drawn) [Ex. 7A] | 480 mg/kg | 26.6 mg/kg | < 1 µM | + | – | –
CCC(Cc1ccccc1)(CN(C)C)n1ccnc1 (stereo not drawn) [Ex. 7B] | 384 mg/kg | 8.5 mg/kg | – | – | – | IC35 (thromboxane synthetase [2]; washed rabbit platelets, in vitro, 35% inhibition of TXB2 synthesis, read-out: Inh. TX B2 CE35%): 100 µM
CCCCCC(Cn1ccnc1)(c1ccccc1)N(C)C (stereo not drawn) [Ex. 8A] | 287 mg/kg | 25 mg/kg | 0.56 µM | + | – | activity relative to 1-benzyl imidazole (thromboxane synthetase [2]; washed rabbit platelets): equal to clearly superior activity
CCCCCC(CN(C)C)(c1ccccc1)n1ccnc1 (stereo not drawn) [Ex. 8B] | 562 mg/kg | 9 mg/kg | 2.15 µM | + | 346 mg/kg | activity relative to 1-benzyl imidazole (thromboxane synthetase [2]; washed rabbit platelets): equal to clearly superior activity
